Source: ChEMBL document CHEMBL3046561, “Feeding deterrents from Dictamnus dasycarpus Turcz against two stored-product insects” (J Agric Food Chem, 2002)

Experiments:
Format in all cases: functional, organism-based
Sitophilus zeamais = experiment: Antifeedant activity against adult of Sitophilus zeamais after 3 days
Tribolium castaneum [1] = experiment: Antifeedant activity against larvae of Tribolium castaneum (red flour beetle) after 3 days
Tribolium castaneum [2] = experiment: Antifeedant activity against adult of Tribolium castaneum (red flour beetle) after 3 days

Row | SMILES | EC50 (Sitophilus zeamais) [ppm] | EC50 (Tribolium castaneum [1]) [ppm] | EC50 (Tribolium castaneum [2]) [ppm]
1 | C/C=C(\C)C(=O)O[C@H]1C[C@@H](OC(C)=O)[C@@]2(C(=O)OC)CO[C@H]3[C@@H](O)[C@@](C)([C@]45O[C@@]4(C)[C@@H]4C[C@H]5O[C@@H]5OC=C[C@@]54O)[C@H]4[C@]1(CO[C@]4(O)C(=O)OC)[C@@H]32 [AZADIRACHTIN A] | 91.7 | 47.9 | 57.6
2 | CC(=O)O[C@@H]1C[C@H](O)[C@@]23CO[C@@H](O)[C@]1(C)[C@@H]2C[C@@H](O)[C@]1(C)[C@@H]3C(=O)[C@H](OC(C)=O)[C@@]2(C)[C@H](c3ccoc3)C[C@H]3O[C@]321 [TOOSENDANIN] | 100 | 48 | 66
